Laboratory results from patent publication US20240327459A1, “PEPTIDE FRAGMENTS FOR TREATMENT OF DIABETES” (Follicum AB, priority 2018, published 2024).

Experiments:
INS-1 β-cells = experiment: Insulin secretion from INS-1 cells (Examples 4 and 6); assay type: cell-based, rat; conditions: Example 6, 6 μM peptide, KRB buffer, 60 min, vs unstimulated control cells
Protocol: To investigate the stimulatory effect of FOL-005 on insulin secretion, INS-1 β-cells were used in the following experiments. Cells were seeded overnight in cRPMI and then washed with PBS before pre-incubation for 60 min at 37° C. in Krebs-Ringer bicarbonate buffer (KRB), pH 7.4, supplemented with 10 mM HEPES, 0.1% bovine serum albumin. After pre-incubation, the buffer was changed and the INS-1 cells were incubated at different test conditions (0 mM, 5 mM or 20 mM glucose) and stimulated with peptide FOL-005 or FOL-015 (SEQ ID NO: 158) or left untreated during 60 min at 37° C. Immediately after incubation, an aliquot of the buffer was removed and frozen for subsequent assay of insulin with an insulin radioimmunoassay kit.
INS-1 β-cells were used to investigate the stimulatory effect of FOL-014 on insulin secretion. Cells were seeded overnight and then washed with PBS before pre-incubation for 60 min at 37° C. in Krebs-Ringer bicarbonate buffer (KRB), pH 7.4, supplemented with 10 mM HEPES, 0.1% bovine serum albumin. After pre-incubation, the buffer was changed and the INS-1 cells were incubated in new KRB buffer supplemented with 10 mM HEPES, 0.1% bovine serum albumin and stimulated with peptide FOL-014 or left untreated during 60 min at 37° C. Immediately after incubation, an aliquot of the buffer was removed and frozen for subsequent assay of insulin.

isolated mouse islets = experiment: Insulin and glucagon secretion from isolated mouse islets (Example 12); assay type: cell-based
Protocol: Twelve-week-old male C57/bl6 mice were euthanized with isoflurane and cervical dislocation. After clamping the hepatic ducts, 3 ml of 0.9 U/ml collagenase P was injected into the bile duct to inflate the pancreas. The pancreas was then removed and digested for 19 min at 37° C. The samples were vigorously shaken to disrupt the tissue. The digest was quickly transferred into ice cold Hank's Balanced Salts Solution with Ca^2+ and Mg^2+. The suspension was allowed to sit for 8 min to allow the islet to sink, and the islets were washed in the same manner four times. The islets were then handpicked and sorted according to size.
Freshly isolated islets were seeded in groups of 5 in a 96-well plate and preincubated for 1 h at 37° C. in a Krebs-Ringer bicarbonate buffer (pH 7.4). The islets were incubated for 1 h at 37° C. in Krebs-Ringer buffered solution supplemented with 0.6 or 6 μM FOL-014 or 100 nM GLP-1 or left unsupplemented for control. Immediately after incubation, the medium was removed for assays of insulin and glucagon using Mercodia's ELISA kits. The effect of FOL-014 on insulin (FIGS. 8A and B) and glucagon (FIGS. 8C and D) secretion from isolated mouse islets was measured in the presence of low glucose (2.8 mM; FIGS. 8A and C) or high glucose (16.7 mM; FIGS. 8B and D) concentrations.

[1] = low glucose (2.8 mM), FOL-014 0.6 or 6 μM

KPLAEIDSIELSYGIK (MISC_FEATURE - peptide, FOL-014)
insulin secretion (INS-1 β-cells): secreted more insulin compared to unstimulated control cells | insulin secretion (isolated mouse islets; high glucose (16.7 mM), 600 nM): significantly increased insulin secretion | insulin secretion (isolated mouse islets; high glucose (16.7 mM), 6 μM): but not 6 μM FOL-014, significantly increased insulin secretion | glucagon secretion (isolated mouse islets; high glucose (16.7 mM), both concentrations (0.6 and 6 μM)): efficiently reduced glucagon secretion | glucagon secretion (isolated mouse islets; [1]): reduced glucagon secretion as compared with control and GLP-1 | insulin secretion (isolated mouse islets; [1]): did not increase insulin secretion
